Reference: patent publication US9975944B2, “Synthetic peptides for the treatment of autoimmune diseases” (TEL HASHOMER MEDICAL RESEARCH INFRASTRUCTURE AND SERVICES …, priority 2013, dated 2018)

What was measured:
[1] = system: T cells derived from the spleen; experiment: Apoptosis of T cells from the spleen of AIA rats, Annexin V/PI staining; format: in vivo, rat; conditions: gated for PI and CD4+, two independent experiments, control 13±1%
Description: To assess apoptosis of T cells derived from the spleen of treated rats, the Annexin V/PI staining method was preformed. FIGS. 14A-14C are representative histograms of cells treated with Cit-Me (FIG. 14A), non-Cit-Me (FIG. 14B) or untreated (FIG. 14C). The histograms present apoptosis measured by Annexin V^+. First, cells were gated for PI and CD4^+ and next analyzed for percentage of Annexin-V positive cells. […] A significant increase (p<0.01) in the mean apoptotic rate was determined in cells from the spleen of Cit-ME treated rats (19.5±1.8%) in comparison with Non-Cit-ME or control (13.8±1.3% and 13±1%, respectively).

[2] = system: anti citrullinated filaggrin ACPA; experiment: Peptide inhibition assay in ELISA, plates coated with cit-filaggrin; set-up: species or system human; conditions: sera of ACPA-positive RA patients diluted to about 50% binding OD, 2 h preincubation at room temperature
Description: Peptide inhibition assay in ELISA was used to confirm the cross-reactivity of the Cit-ME peptide to the following anti-citrullinated protein antibodies (ACPA): anti citrullinated filaggrin, anti cit-β-fibrinogen, anti cit-collagen and anti cit-vimentin. Sera were obtained from ACPA RA patients and samples with highly positive ACPA levels were selected (≥100 U/ml) using commercial CCP ELISA test (INOVA). ELISA test was performed with each of the citrullinated peptides: cit-filaggrin (HQCHQESTCitGRSRGRCGRSGS) set forth in SEQ ID NO: 3, cit-β-fibrinogen (CitPAPPPISGGGYCitACit) set forth in SEQ ID NO: 2, cit-collagen (ACitGLTGCitPGDAK) set forth in SEQ ID NO: 21 and cit-vimentin (SAVRACitSSVPGVRK) set forth in SEQ ID NO: 22. Sera were diluted in PBS to obtain a reactivity of approximately 50% binding OD under standard assay conditions. Increasing concentrations of Cit-ME peptide were added to the diluted sera and incubated for two hours at room temperature. Specimens were then assayed in ELISA plates coated with each one of the peptides. […] Thus, ACPA have binding specificity to Cit-ME.

CD4+CD25+Foxp3+ T cells = experiment: Regulatory T cell proportion in PBMC of RA patients, FACS; format: cell-based, human; conditions: 1.25 μg/ml peptide, 48 hours, compared with non-citrullinated matched peptide
Description: Given the observed immunomodulation of cytokines following incubation of peripheral blood mononuclear cells obtained from rheumatoid arthritis patients with citrullinated peptides, the citrullinated peptides were tested for their ability to exert an effect on the T regulatory population proportion. Peripheral blood mononuclear cells of rheumatoid arthritis patients were cultured in the presence of 1.25 μg/ml of the peptides (Fil-Cit, β-Fib-Cit, and Cit-ME; FIGS. 6A, 6B and 6E, respectively, and Fil-NC, β-Fib-NC and Non-Cit-ME; FIGS. 6C, 6D and 6G, respectively), and Infliximab (FIG. 6F) for 48 hours. Cells cultured with medium devoid of the peptides and Infliximab served as control (FIG. 6H). Thereafter, cells were stained for the expression of CD4, CD25, and FoxP3 and analyzed by FACS. […] Mean percentage of CD4^+CD25^+Foxp3^+ T cells in the presence of Infliximab was increased by 14% as compared to medium (FIG. 6F and FIG. 6H, respectively). Thus, citrullinated peptides are able to induce the expansion of the T regulatory cell population.

pathogenic Th17 cells = experiment: Pathogenic Th17 cell proportion in PBMC of RA patients, FACS; format: cell-based, human; conditions: 48 hours, PMA, ionomycin and brefeldin A in last 4 hours, compared with non-citrullinated matched peptide
Description: To assess ability of the citrullinated peptides to affect the pathogenic Th17 cells population proportion, peripheral blood mononuclear cells of rheumatoid arthritis patients were cultured in the presence of citrullinated peptides, non-citrullinated peptides and Infliximab for 48 hours. In the last 4 hours phorbol12-myristate 13-acetate (PMA), ionomycin and brefeldin A were added to the culture. Thereafter cells were stained with antibodies against CD3 and IL-17. As shown in FIGS. 7A-7H, significant down-regulation in the mean percentage of pathogenic Th17 cells was detected following incubation with the citrullinated peptides: decrease of 21% (Fil-Cit; E), 5% (β-Fib-Cit; F), and 26% (Cit-ME; G) as compared with the non-citrullinated matched peptides (FIG. 7A-7C, respectively). Mean percentage of pathogenic Th17 cells in the presence of Infliximab was decreased by 48% (FIG. 7H) as compared to medium (FIG. 7D).

TGF-β = TGF-β gene expression in mononuclear cells derived from synovial fluid of RA patients, real-time PCR; format: cell-based, human; conditions: 24 h, compared to the non-citrullinated peptides
Description: To assess the effect of the Cit-ME peptide (SEQ ID NO: 1) on inflammatory related genes expression, peripheral blood mononuclear cells derived from synovial fluid rheumatoid arthritis patients were incubated with the Cit-ME multi-epitope citrullinated peptide for 24 h. The effect of the peptide on gene expression was compared also to the effect of infliximab, a TNF-α blocker, which is an antirheumatic drug that acts as an anti-inflammatory compound. […] Results were determined by real-time PCR.

- amount of peptide sufficient to impair binding of specific ACPA to cit-filaggrin [2]: 10 to 200 µg
Substance: VCitLCitSSVESTCitGRSCitPAPPPACitGLT [Cit-ME]
- mean apoptotic rate (Annexin-V positive cells) [1]: 19.5±1.8%
- increase in mean percentage of CD4+CD25+Foxp3+ T cells (CD4+CD25+Foxp3+ T cells): 12%
- decrease in mean percentage of pathogenic Th17 cells (pathogenic Th17 cells): 26%
- expression of TGF-β (TGF-β): up-regulated
